In PubChem BioAssay AID493043 (Johns Hopkins Ion Channel Center, 2011):

Target: Potassium voltage-gated channel subfamily KQT member 4 (Homo sapiens) (UniProt P56696)
Assay: activation of KCNQ4 potassium current – automated patch clamp, CHO cells, selectivity assay for KCNQ2 activator project, dose response (AID 493043)
Settings: automated patch clamp current potentiation

Potassium voltage-gated channel subfamily KQT member 4 (Homo sapiens), sequence (P56696 whole entry, looked up): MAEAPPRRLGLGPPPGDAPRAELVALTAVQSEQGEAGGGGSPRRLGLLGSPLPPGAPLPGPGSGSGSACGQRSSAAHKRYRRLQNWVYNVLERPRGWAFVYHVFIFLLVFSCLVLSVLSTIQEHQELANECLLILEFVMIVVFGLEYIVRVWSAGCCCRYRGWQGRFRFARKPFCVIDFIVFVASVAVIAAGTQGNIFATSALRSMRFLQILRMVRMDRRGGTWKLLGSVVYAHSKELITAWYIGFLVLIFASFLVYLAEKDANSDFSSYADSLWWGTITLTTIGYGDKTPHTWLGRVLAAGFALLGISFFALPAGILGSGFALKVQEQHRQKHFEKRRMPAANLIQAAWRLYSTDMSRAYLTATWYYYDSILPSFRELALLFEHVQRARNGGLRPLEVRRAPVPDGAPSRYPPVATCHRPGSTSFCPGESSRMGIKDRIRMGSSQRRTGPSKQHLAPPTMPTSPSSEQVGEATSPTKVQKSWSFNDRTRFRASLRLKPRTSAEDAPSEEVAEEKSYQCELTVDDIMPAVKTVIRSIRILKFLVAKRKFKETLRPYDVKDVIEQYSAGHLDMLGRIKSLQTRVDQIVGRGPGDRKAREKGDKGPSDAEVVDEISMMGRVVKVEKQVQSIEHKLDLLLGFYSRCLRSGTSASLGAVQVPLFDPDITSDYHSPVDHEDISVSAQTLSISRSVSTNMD

Cc1cc(C)c(NC(=O)C2CC3CCC2C3)c(C)c1 (stereo unspecified)
EC50: 513 nM
